Measurements reported in patent US20250230193A1, “CYCLIC COMPOUND HAVING SELECTIVE KRAS INHIBITORY EFFECT ON HRAS AND NRAS” (CHUGAI SEIYAKU KABUSHIKI KAISHA, priority 2022, published 2025).
Where a SMILES comes first, the peptide text is derived from it. Bridges are numbered along the chain shown (N, C = ends). [ ]: non-standard residue; d: D form. The star is where a group is joined. hPhe(3-Cl-4-CF3) = N[C@@H](CCc1ccc(C(F)(F)F)c(Cl)c1)C(=O)O; NPrPhe(4-CF3) = CCCN[C@@H](Cc1ccc(C(F)(F)F)cc1)C(=O)O; NMeGly(cPent) = CN[C@H](C(=O)O)C1CCCC1; Pro(4,4-F2) = O=C(O)[C@@H]1CC(F)(F)CN1; NMeD = CN[C@@H](CC(=O)O)C(=O)O; NMeL = CN[C@@H](CC(C)C)C(=O)O; Morpholide = C1CN(*)CCO1; Ac5c = NC1(C(=O)O)CCCC1; Aze = O=C(O)[C@@H]1CCN1; Sar = CNCC(=O)O

Legend:
[1] = biological target: GDP-bound NRAS wild-type protein (Homo sapiens, UniProt P01111); assay: Binding to NRAS by surface plasmon resonance (SPR), Single Cycle Kinetics; conditions: SPR
[2] = biological target: GDP-bound HRAS wild-type protein (Homo sapiens, UniProt P01112); assay: Binding to HRAS by surface plasmon resonance (SPR), Single Cycle Kinetics; conditions: SPR
Chain of GDP-bound HRAS wild-type protein (P01112 whole entry): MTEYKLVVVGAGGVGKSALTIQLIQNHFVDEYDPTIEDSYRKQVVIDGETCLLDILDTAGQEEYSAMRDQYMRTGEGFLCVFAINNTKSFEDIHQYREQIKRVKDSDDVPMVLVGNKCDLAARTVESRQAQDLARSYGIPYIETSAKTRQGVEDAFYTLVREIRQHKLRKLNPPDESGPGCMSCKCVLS

Chain of GDP-bound NRAS wild-type protein (P01111 whole entry): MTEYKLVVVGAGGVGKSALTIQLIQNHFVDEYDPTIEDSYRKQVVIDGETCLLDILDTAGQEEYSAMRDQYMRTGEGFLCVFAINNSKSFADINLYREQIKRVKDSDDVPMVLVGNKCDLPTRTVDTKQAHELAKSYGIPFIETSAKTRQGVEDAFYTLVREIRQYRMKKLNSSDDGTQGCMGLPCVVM

Row | SMILES | NRAS/KRAS (ratio of KD value with respect to GDP-bound NRAS wild-type protein to KD value with respect to KRAS) ([1]; KD ratio NRAS/KRAS) | HRAS/KRAS (ratio of KD value with respect to GDP-bound HRAS wild-type protein to KD value with respect to KRAS) ([2]; KD ratio HRAS/KRAS) | other results
1 | CCCN1C(=O)CN(C)C(=O)CN(C)C(=O)[C@H]([C@@H](C)CC)NC(=O)[C@H](CC(C)C)N(C)C(=O)C[C@@H](C(=O)N(C)C)N(C)C(=O)[C@H](C2CCCC2)N(C)C(=O)C2(CCCC2)NC(=O)[C@@H]2CC(F)(F)CN2C(=O)[C@H](CCc2ccc(C(F)(F)F)c(Cl)c2)NC(=O)CN(C)C(=O)[C@@H]1Cc1ccc(C(F)(F)F)cc1 [PP0413] ([NMeL]I[Sar][Sar][NPrPhe(4-CF3)][Sar][hPhe(3-Cl-4-CF3)][Pro(4,4-F2)][Ac5c][NMeGly(cPent)][NMeD]-NMe2; lactam N-11) | C (A compound having a KD ratio of 0.1 or more and less than 3 is denoted as C) | C (A compound having a KD ratio of 0.1 or more and less than 3 is denoted as C) | 
2 | CCO[C@@H]1C[C@H]2C(=O)NC3(CCC3)C(=O)N(C)[C@@H](C3CCCC3)C(=O)N(C)[C@H](C(=O)N3CCOCC3)CC(=O)N(C)[C@@H](CC(C)(C)C)C(=O)N[C@@H]([C@@H](C)CC)C(=O)N(C)CC(=O)N(C)[C@H]3CCCCCN(C3=O)[C@@H](Cc3ccc(C(F)(F)F)cc3)C(=O)N(C)CC(=O)N[C@@H](CCc3cc(F)c(C(F)(F)F)c(F)c3)C(=O)N2C1 [PP0684] | B (a compound having 3 or more and less than 10 is denoted as B) | B (a compound having 3 or more and less than 10 is denoted as B) | 
3 | CCC[C@H]1C(=O)N[C@@H]([C@@H](C)CC)C(=O)N(C2CC2)CC(=O)N(C)[C@H]2C/C=C\CCN(C2=O)[C@@H](Cc2ccc(C)cc2)C(=O)N(C)CC(=O)N[C@@H](CCc2ccc(C(F)(F)F)c(OC)c2)C(=O)N2C[C@H](OCC)C[C@H]2C(=O)N(C)C2(CCC2)C(=O)N(C)[C@@H](C2CCCC2)C(=O)N(C)[C@H](C(=O)N(C)C)CC(=O)N1C [PP2328, (2S,8S,12R,14S,20S,23S,27S,30S,36S,38Z)-20-cyclopentyl-32-cyclopropyl-12-ethoxy-8-[2-[3-methoxy-4-(trifluoromethyl)phenyl]ethyl]-N,N,4,16,19,22,26,35-octamethyl-30-[(1S)-1-methylpropyl]-3,6,9,15,18,21,25,28,31,34,42-undecaoxo-27-propyl-2-(p-tolylmethyl)spiro[1,4,7,10,16,19,22,26,29,32,35-undecazatricyclo[34.5.1.0^10,14]dotetracont-38-ene-17,1′-cyclobutane]-23-carboxamide] |  |  | NRAS/KRAS (ratio of KD value with respect to NRAS to KD value with respect to KRAS) ([1]; GDP-bound NRAS wild-type vs GDP-bound KRAS wild-type): A (a compound having 10 or more and less than 20 is denoted as A); HRAS/KRAS (ratio of KD value with respect to HRAS to KD value with respect to KRAS) ([2]; GDP-bound HRAS wild-type vs GDP-bound KRAS wild-type): A (a compound having 10 or more and less than 20 is denoted as A)
4 | CC[C@H](C)[C@@H]1NC(=O)[C@H](CC(F)(F)F)N(C)C(=O)C[C@@H](C(=O)N2CCOCC2)N(C)C(=O)[C@H](C2CCCC2)N(C)C(=O)C2(CCCC2)NC(=O)[C@@H]2CCCN2C(=O)[C@H](CCc2cc(F)c(C(F)(F)F)c(F)c2)NC(=O)CN(C)C(=O)[C@H](Cc2ccc(C(F)(F)F)cc2)N2CCCCC[C@@H](C2=O)N(C)C(=O)CN(C)C1=O [PP0520] | B (a compound having 3 or more and less than 10 is denoted as B) | B (a compound having 3 or more and less than 10 is denoted as B) | 
5 | CCCN1C(=O)[C@@H]2CCN2C(=O)CN(C)C(=O)[C@H]([C@@H](C)CC)NC(=O)[C@H](CC(C)C)N(C)C(=O)C[C@@H](C(=O)N2CCOCC2)N(C)C(=O)[C@H](C2CCCC2)N(C)C(=O)C2(CCCC2)NC(=O)[C@@H]2CCCN2C(=O)[C@H](CCc2ccc(C(F)(F)F)c(Cl)c2)NC(=O)CN(C)C(=O)[C@@H]1Cc1ccc(C(F)(F)F)cc1 [PP0156] ([NMeL]I[Sar][Aze][NPrPhe(4-CF3)][Sar][hPhe(3-Cl-4-CF3)]P[Ac5c][NMeGly(cPent)][NMeD]-Morpholide; lactam N-11) |  |  | NRAS/KRAS (ratio of KD for GDP-bound NRAS wild-type to KD for KRAS) ([1]; KD ratio NRAS/KRAS): C (A compound having a KD ratio of 0.1 or more and less than 3 is denoted as C); HRAS/KRAS (ratio of KD for GDP-bound HRAS wild-type to KD for KRAS) ([2]; KD ratio HRAS/KRAS): B (a compound having 3 or more and less than 10 is denoted as B)
6 | CCCN(C)C(=O)[C@@H]1CC(=O)N(C)[C@@H](CC(F)(F)F)C(=O)N[C@@H]([C@@H](C)CC)C(=O)N(C)CC(=O)N(C)[C@H]2C/C=C\CCN(C2=O)[C@@H](Cc2ccc(C(F)(F)F)cc2)C(=O)N(C)CC(=O)N[C@@H](CCc2cc(F)c(C(F)(F)F)c(F)c2)C(=O)N2C[C@H](OCC)C[C@H]2C(=O)NC2(CCC2)C(=O)N(C)[C@@H](C2CCCC2)C(=O)N1C [PP1702] |  |  | NRAS/KRAS (ratio of KD value for NRAS to KD value for KRAS) ([1]; KD ratio, GDP-bound NRAS wild-type vs GDP-bound KRAS wild-type): A (a compound having 10 or more and less than 20 is denoted as A); HRAS/KRAS (ratio of KD value for HRAS to KD value for KRAS) ([2]; KD ratio, GDP-bound HRAS wild-type vs GDP-bound KRAS wild-type): A (a compound having 10 or more and less than 20 is denoted as A)
